Measured values: ChEMBL document CHEMBL3856202, “Synthesis and screening of triazolopyrimidine scaffold as multi-functional agents for Alzheimer's disease therapies” (Eur J Med Chem, 2016)
Calls of active or inactive are those of the source. No cut-off for these calls is given here.

Columns and labels:
Acetylcholinesterase = Acetylcholinesterase (Electrophorus electricus, UniProt O42275)
Description: Inhibition of electric eel AChE preincubated for 5 mins followed by addition of acetylthiocholine iodide as substrate measured after 2 mins by Ellman's method

Cholinesterase = Cholinesterase (Equus caballus, UniProt P81908)
Description: Inhibition of equine serum BuChE preincubated for 5 mins followed by addition of butyrylthiocholine iodide as substrate measured after 2 mins by Ellman's method

[1] = target: Amyloid-beta precursor protein (Homo sapiens) (UniProt P05067); conditions: at 25 µM
Description: Inhibition of amyloid beta (1 to 42) (unknown origin) self-aggregation at 25 uM measured after 48 hrs by ThT-assay

[2] = target: Acetylcholinesterase (Electrophorus electricus) (UniProt O42275); conditions: at 100 µM
Description: Inhibition of electric eel AChE-mediated amyloid beta (1 to 42) (unknown origin) co-aggregation at 100 uM measured after 48 hrs by ThT-assay

[3] = target: Cholinesterase (Equus caballus) (UniProt P81908); assay: Potency index, ratio of IC50 donepezil to IC50 for test compound against equine serum BuChE
[4] = target: Acetylcholinesterase (Electrophorus electricus) (UniProt O42275); assay: Potency index, ratio of IC50 for galantamine to IC50 for test compound against electric eel AChE
[5] = target: Acetylcholinesterase (Electrophorus electricus) (UniProt O42275); assay: Potency index, ratio of IC50 for rivastigmine to IC50 for test compound against electric eel AChE
[6] = target: Amyloid-beta precursor protein (Homo sapiens) (UniProt P05067); assay: Inhibition of amyloid beta (1 to 42) (unknown origin) aggregation assessed at 25 uM after 24 to 48 hrs by transmission electron microscopic analysis
SH-SY5Y [7] = assay: Neuroprotective activity in human SH-SY5Y cells assessed as reduction of amyloid beta (1 to 42)-induced neurotoxicity measured as cell viability preincubated 30 mins followed by amyloid beta (1 to 42) peptide addition for 24 hrs by MTT assay; assay type: functional, cell-based
[8] = Cytotoxicity against human SH-SY5Y cells assessed as cell viability at 1 to 50 uM measured after 24 hrs by MTT assay; assay type: toxicity, cell-based
[9] = Neuroprotective activity in human SH-SY5Y cells assessed as reduction of amyloid beta (1 to 42)-induced neurotoxicity measured as cell viability at 5 to 25 uM preincubated 30 mins followed by amyloid beta (1 to 42) peptide addition for 24 hrs by MTT assay relative to control; assay type: functional
SH-SY5Y [10] = assay: Neuroprotective activity in human SH-SY5Y cells assessed as reduction of amyloid beta (1 to 42)-induced neurotoxicity measured as morphological changes preincubated 30 mins followed by amyloid beta (1 to 42) peptide addition for 24 hrs by microscopy; assay type: functional, cell-based
SH-SY5Y [11] = assay: Neuroprotective activity in human SH-SY5Y cells assessed as reduction of H2O2-induced neurotoxicity measured as increase in cell viability at 1 to 20 uM incubated for 24 hrs with H2O2-challenge by MTT assay; assay type: functional, cell-based
SH-SY5Y [12] = assay: Neuroprotective activity in human SH-SY5Y cells assessed as reduction of H2O2-induced neurotoxicity measured as morphological changes at 10 uM incubated for 24 hrs with H2O2-challenge by microscopy; assay type: functional, cell-based
[13] = target: Acetylcholinesterase (Electrophorus electricus) (UniProt O42275); assay: Potency index, ratio of IC50 for tacrine to IC50 for test compound against electric eel AChE
[14] = target: Acetylcholinesterase (Electrophorus electricus) (UniProt O42275); conditions: at 12 to 42 nM

Cholinesterase, sequence (P81908 whole entry): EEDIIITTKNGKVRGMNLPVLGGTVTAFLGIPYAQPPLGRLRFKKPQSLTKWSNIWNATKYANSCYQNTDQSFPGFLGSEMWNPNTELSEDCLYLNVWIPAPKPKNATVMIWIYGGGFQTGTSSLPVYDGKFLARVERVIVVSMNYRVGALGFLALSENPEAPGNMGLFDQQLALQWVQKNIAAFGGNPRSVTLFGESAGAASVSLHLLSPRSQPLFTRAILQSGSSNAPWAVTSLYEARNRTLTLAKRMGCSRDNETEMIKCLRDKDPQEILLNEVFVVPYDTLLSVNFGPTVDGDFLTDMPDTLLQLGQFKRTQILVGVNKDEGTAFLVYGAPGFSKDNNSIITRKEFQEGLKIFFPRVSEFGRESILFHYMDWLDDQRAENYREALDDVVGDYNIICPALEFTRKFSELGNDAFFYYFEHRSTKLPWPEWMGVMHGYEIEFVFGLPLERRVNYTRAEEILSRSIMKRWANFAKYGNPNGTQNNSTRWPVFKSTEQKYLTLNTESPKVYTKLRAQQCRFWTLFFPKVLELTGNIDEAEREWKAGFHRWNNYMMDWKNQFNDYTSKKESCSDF
Acetylcholinesterase (Electrophorus electricus), sequence (O42275 24-633 limits assumed): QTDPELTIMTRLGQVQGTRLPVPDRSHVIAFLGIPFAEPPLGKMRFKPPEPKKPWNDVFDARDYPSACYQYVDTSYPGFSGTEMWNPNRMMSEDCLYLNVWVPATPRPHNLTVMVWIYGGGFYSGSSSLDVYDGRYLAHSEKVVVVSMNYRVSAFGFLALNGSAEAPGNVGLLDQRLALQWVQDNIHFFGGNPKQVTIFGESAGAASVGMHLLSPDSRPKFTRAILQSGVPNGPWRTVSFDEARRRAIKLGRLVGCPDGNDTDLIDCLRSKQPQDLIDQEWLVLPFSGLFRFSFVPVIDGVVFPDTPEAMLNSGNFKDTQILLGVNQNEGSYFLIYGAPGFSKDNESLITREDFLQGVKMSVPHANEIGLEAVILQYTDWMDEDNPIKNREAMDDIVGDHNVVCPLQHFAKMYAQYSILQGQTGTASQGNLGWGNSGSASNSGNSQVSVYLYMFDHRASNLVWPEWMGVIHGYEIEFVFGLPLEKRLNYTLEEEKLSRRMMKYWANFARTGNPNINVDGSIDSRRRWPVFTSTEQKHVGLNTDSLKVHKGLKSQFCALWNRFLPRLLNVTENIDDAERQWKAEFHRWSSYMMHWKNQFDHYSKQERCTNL
Acetylcholinesterase, sequence (O42275 whole entry): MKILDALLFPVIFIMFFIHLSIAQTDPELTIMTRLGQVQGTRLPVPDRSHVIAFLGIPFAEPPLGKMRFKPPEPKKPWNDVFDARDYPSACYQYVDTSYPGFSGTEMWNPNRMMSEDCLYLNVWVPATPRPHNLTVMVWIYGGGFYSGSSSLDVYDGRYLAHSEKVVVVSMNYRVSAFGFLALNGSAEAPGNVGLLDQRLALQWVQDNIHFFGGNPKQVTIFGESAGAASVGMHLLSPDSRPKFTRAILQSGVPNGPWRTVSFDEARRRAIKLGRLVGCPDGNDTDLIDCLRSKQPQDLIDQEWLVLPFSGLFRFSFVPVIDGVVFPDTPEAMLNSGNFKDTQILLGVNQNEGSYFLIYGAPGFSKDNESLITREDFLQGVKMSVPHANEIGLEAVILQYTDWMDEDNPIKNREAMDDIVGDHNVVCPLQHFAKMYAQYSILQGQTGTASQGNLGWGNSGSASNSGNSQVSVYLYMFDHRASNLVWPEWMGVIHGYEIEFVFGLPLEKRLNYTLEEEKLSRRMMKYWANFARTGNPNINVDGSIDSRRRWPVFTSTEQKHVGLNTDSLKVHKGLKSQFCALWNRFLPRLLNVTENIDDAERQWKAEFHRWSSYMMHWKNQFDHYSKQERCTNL
Amyloid-beta precursor protein (Homo sapiens), sequence (P05067 whole entry): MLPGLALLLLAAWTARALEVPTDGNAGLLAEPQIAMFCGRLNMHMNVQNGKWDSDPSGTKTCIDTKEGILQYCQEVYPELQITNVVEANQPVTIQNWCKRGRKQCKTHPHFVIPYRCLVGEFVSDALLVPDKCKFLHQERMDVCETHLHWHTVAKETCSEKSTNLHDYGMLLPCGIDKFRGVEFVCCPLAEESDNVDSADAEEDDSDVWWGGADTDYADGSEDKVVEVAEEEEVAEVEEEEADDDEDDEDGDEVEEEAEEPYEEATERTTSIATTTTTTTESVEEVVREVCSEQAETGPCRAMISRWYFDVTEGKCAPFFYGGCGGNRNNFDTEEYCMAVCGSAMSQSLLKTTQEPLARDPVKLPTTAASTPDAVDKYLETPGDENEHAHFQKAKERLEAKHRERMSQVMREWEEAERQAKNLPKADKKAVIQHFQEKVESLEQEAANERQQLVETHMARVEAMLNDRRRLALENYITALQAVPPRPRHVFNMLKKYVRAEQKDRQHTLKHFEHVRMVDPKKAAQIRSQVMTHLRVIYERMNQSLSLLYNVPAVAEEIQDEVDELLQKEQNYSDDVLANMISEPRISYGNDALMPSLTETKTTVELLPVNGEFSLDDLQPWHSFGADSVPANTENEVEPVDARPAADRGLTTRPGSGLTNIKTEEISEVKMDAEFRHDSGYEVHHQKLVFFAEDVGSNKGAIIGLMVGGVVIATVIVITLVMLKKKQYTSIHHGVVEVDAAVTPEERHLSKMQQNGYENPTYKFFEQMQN
Cholinesterase (Equus caballus), sequence (P81908 whole entry): as the sequence (P81908 whole entry) above

| SMILES | IC50 (Acetylcholinesterase) | IC50 (Cholinesterase) | inhibition [1] | inhibition [2] | Ratio IC50 [3] | Ratio IC50 [4] | Ratio IC50 [5] | inhibition [6] | Activity (SH-SY5Y [7]) | Activity [8] | Activity [9] | Activity (SH-SY5Y [10]) | Activity (SH-SY5Y [11]) | Activity (SH-SY5Y [12]) | Ratio IC50 [13] | inhibition [14] |
| --- | --- | --- | --- | --- | --- | --- | --- | --- | --- | --- | --- | --- | --- | --- | --- | --- |
| CCOC(=O)c1cnc2ccc(C)cc2c1N1CCN(c2cc(C)nc3ncnn23)CC1 | 2640 nM | 4090 nM | 52.5% | 54.3% | – | – | – | – | – | – | – | – | – | – | – | – |
| CCOC(=O)c1cnc2c(F)cccc2c1N1CCN(c2cc(C)nc3ncnn23)CC1 | 97 nM | 180 nM | 64.2% | 70.3% | 5 | 32 | 46 | Active | Dose-dependent effect | Non-Toxic | 79 - 83% | Active | Active | Active | – | – |
| CCOC(=O)c1cnc2ccc(C)cc2c1N1CCN(c2ncccc2C#N)CC1 | 3490 nM | 3000 nM | 27.3% | – | – | – | – | – | – | – | – | – | – | – | – | – |
| CCOC(=O)c1cnc2c(F)cccc2c1N1CCN(c2ncccc2C#N)CC1 | 730 nM | 890 nM | 47.4% | 50.3% | – | – | – | – | – | – | – | – | – | – | – | – |
| CCOC(=O)c1cnc2ccc(F)cc2c1N1CCN(c2ncccc2C#N)CC1 | 580 nM | 1230 nM | 54.9% | 59% | – | – | – | – | – | – | – | – | – | – | – | – |
| CCOC(=O)c1cnc2ccc(OC)cc2c1N1CCN(c2ncccc2C#N)CC1 | 1100 nM | 1900 nM | 39.8% | – | – | – | – | – | – | – | – | – | – | – | – | – |
| Cc1cc(N2CCN(c3ncccc3C#N)CC2)n2ncnc2n1 | 1390 nM | 780 nM | 46.8% | 49.4% | – | – | – | – | – | – | – | – | – | – | – | – |
| CCOC(=O)c1cnc2ccc(F)cc2c1N1CCN(c2cc(C)nc3ncnn23)CC1 | 42 nM | 510 nM | 72.9% | 80.5% | 14 | 74 | 106 | Active | Dose-dependent effect | Non-Toxic | 79 - 83% | Active | Active | Active | 3.2 | Active |
| CCOC(=O)c1cnc2ccc(OC)cc2c1N1CCN(c2cc(C)nc3ncnn23)CC1 | 760 nM | 2010 nM | 61.6% | 68.7% | – | – | – | Active | Dose-dependent effect | Non-Toxic | 79 - 83% | Active | Active | Active | – | – |
| CCOC(=O)c1cnc2cc(C(F)(F)F)ccc2c1N1CCN(c2cc(C)nc3ncnn23)CC1 | 180 nM | 780 nM | 43.8% | 52% | – | – | – | – | – | – | – | – | – | – | – | – |
| CCOC(=O)c1cnc2cc(C(F)(F)F)ccc2c1N1CCN(c2ncccc2C#N)CC1 | 880 nM | 980 nM | 44.2% | 47.8% | – | – | – | – | – | – | – | – | – | – | – | – |
